Literature values in paper PMC10582684 (RSC Advances, 2023).
Where two headings read alike, the source gives them in different places. Blank lines part the entries; values can stand above or below the compound they belong to.

What was measured:
[1] = test system: ACE
[2] = literature comparison
[3] = oligopeptides from ginkgo seed and bighead carp, high content of Pro
[4] = peptides from walnut protein with Lys in C-terminal tripeptide

Compound: PKPP
Inhibiting ability on ACE (in words) [1, 4]: excellent inhibiting ability on ACE

Compound: O=C(O)CN(CCN(CC(=O)O)CC(=O)O)CC(=O)O [ethylenediamine tetraacetic acid]
Chelating ability towards zinc ions [2]: 57.17 mg/g

Stability against gastrointestinal enzymic digestion (in words) [3]: excellent stability
Compound: LSMSFPPF

Stability against gastrointestinal enzymic digestion (in words) [3]: excellent stability
Compound: VPKIPPP

Compound: PPKP
Inhibiting ability on ACE (in words) [1, 4]: excellent inhibiting ability on ACE

Compound: YIRLHF
Inhibitory kinetics on ACE ([1]; peptide from bighead carp protein): competitive inhibitory kinetics

Stability against gastrointestinal enzymic digestion (in words) [3]: excellent stability
Compound: PPSEPTKL

Compound: TGLL
Chelating ability towards zinc ions [2]: 2.27 mg/g

Compound: WNGPKGV
Inhibiting ability on ACE (in words) ([1]; peptide from corn protein with Lys in C-terminal tripeptide): excellent inhibiting ability on ACE
